From the NIST ThermoML archive (doi:10.1016/j.fluid.2019.05.003)

Experiment: xn = mol fraction of the nth substance listed
Conditions: 101 kPa, Liquid; for mass density: Vibrating tube method; for viscosity: Falling or rolling sphere viscometry

C[N+]1(CCO)CCOCC1.[Br-] [N-methyl-N-(2-hydroxyethyl)morpholinium bromide] + O
Conditions | mass density [kg/m3] | viscosity [mPa·s]
323.15 K, x1 = 0.023 | 1066.9 | –
323.15 K, x1 = 0.038 | 1109 | –
323.15 K, x1 = 0.051 | 1138.2 | –
323.15 K, x1 = 0.075 | 1184.5 | –
323.15 K, x1 = 0.097 | 1218.1 | –
323.15 K, x1 = 0.124 | 1250.5 | –
323.15 K, x1 = 0.157 | 1282.8 | –
323.15 K, x1 = 0.197 | 1313.9 | –
323.15 K, x1 = 0.227 | 1330.6 | –
328.15 K, x1 = 0.023 | 1064.7 | 0.703
328.15 K, x1 = 0.038 | 1106.2 | 0.871
328.15 K, x1 = 0.051 | 1135.9 | 0.982
328.15 K, x1 = 0.075 | 1181.6 | 1.305
328.15 K, x1 = 0.097 | 1215.1 | 1.718
328.15 K, x1 = 0.124 | 1247.6 | 2.4
328.15 K, x1 = 0.157 | 1279.8 | 3.505
328.15 K, x1 = 0.197 | 1310.7 | 6.095
328.15 K, x1 = 0.227 | 1327.5 | 8.272
333.15 K, x1 = 0.023 | 1062.5 | 0.656
333.15 K, x1 = 0.038 | 1103.3 | 0.807
333.15 K, x1 = 0.051 | 1133.3 | 0.913
333.15 K, x1 = 0.075 | 1178.7 | 1.201
333.15 K, x1 = 0.097 | 1212.1 | 1.581
333.15 K, x1 = 0.124 | 1244.5 | 2.186
333.15 K, x1 = 0.157 | 1276.7 | 3.163
333.15 K, x1 = 0.197 | 1307.8 | 5.346
333.15 K, x1 = 0.227 | 1324.2 | 7.316
338.15 K, x1 = 0.023 | 1060.1 | 0.632
338.15 K, x1 = 0.038 | 1101.2 | 0.756
338.15 K, x1 = 0.051 | 1130.8 | 0.849
338.15 K, x1 = 0.075 | 1175.6 | 1.135
338.15 K, x1 = 0.097 | 1209.5 | 1.453
338.15 K, x1 = 0.124 | 1241.5 | 2.007
338.15 K, x1 = 0.157 | 1273.5 | 2.854
338.15 K, x1 = 0.197 | 1304.7 | 4.811
338.15 K, x1 = 0.227 | 1321.1 | 6.504
343.15 K, x1 = 0.023 | 1057.7 | 0.596
343.15 K, x1 = 0.038 | 1098.7 | 0.716
343.15 K, x1 = 0.051 | 1128.3 | 0.796
343.15 K, x1 = 0.075 | 1173.2 | 1.055
343.15 K, x1 = 0.097 | 1206.6 | 1.339
343.15 K, x1 = 0.124 | 1238.3 | 1.873
343.15 K, x1 = 0.157 | 1270.4 | 2.621
343.15 K, x1 = 0.197 | 1301.5 | 4.333
343.15 K, x1 = 0.227 | 1317.9 | 5.834
348.15 K, x1 = 0.023 | 1055.3 | 0.561
348.15 K, x1 = 0.038 | 1096.2 | 0.675
348.15 K, x1 = 0.051 | 1125.7 | 0.749
348.15 K, x1 = 0.075 | 1170.4 | 0.996
348.15 K, x1 = 0.097 | 1203.8 | 1.259
348.15 K, x1 = 0.124 | 1235.2 | 1.719
348.15 K, x1 = 0.157 | 1267.6 | 2.407
348.15 K, x1 = 0.197 | 1298.3 | 3.882
348.15 K, x1 = 0.227 | 1315.1 | 5.243
